The values that follow come from patent EP4755886A1 (Chengdu Chipscreen Pharmaceutical Ltd., priority 2023, dated 2025).

One experiment relates to wild-type HCT-116 cells. Description: Cell proliferation (MTS), wild-type HCT-116. It counts as cell-based. Conditions: Homo sapiens, 240 h; wild-type HCT-116, 10 days with compound, MTS reading; read-out: IC50 HCT116 WT. Here is the method:
(§1) MTAP^-/- HCT-116 and wild-type HCT-116 cell strains were cultured in complete medium McCoy's 5A (Gibco, 16600082)/10% FBS (Gibco, 10099141C)/1% p/s (Gibco, 15140122) to evaluate the enhanced inhibitory effect of the compounds against the proliferation selectivity of MTAP^-/- HCT-116 cells. On day 0, MTAP^-/- HCT-116 cells or wild-type HCT-116 cells were added to a 96-well cell culture plate (Corning, 3599) at 100 cells/well, and the plate was incubated in an incubator at 37 °C with 5% CO2. The compound was diluted in a 3-fold gradient with DMSO (Sigma, D5879) (initial concentration: 20 µM, 3-fold dilution, 8 concentration points in total). On day 1, the compound was diluted to multiple concentration points, and the cells were treated separately and incubated in the incubator at 37 °C with 5% CO2 for another 10 days. On Day 11, 20 µL of MTS (CellTiter 96® AQueous One Solution Cell Proliferation Assay) (Promega, G3581) was added to each well. […] In the formula, Y represents the inhibition rate, X represents the logarithm of the compound concentration, Top represents the maximum response (the inhibition rate at the maximum compound concentration), Bottom represents the baseline response (the inhibition rate where the compound concentration was 0), Hill Slope represents the slope of the IC50 curve, and IC50 represents the half maximal inhibitory concentration. Table 1. IC50 (µM)

For the next experiment, the system named is MTAP^-/- HCT-116 cells. Description: Cell proliferation (MTS), MTAP-/- HCT-116. It counts as cell-based, human. Conditions: for Selectivity: HCT116 WT IC50 relative to HCT116 MTAP-/- IC50; for IC50: Homo sapiens, 240 h, MTAP-/- HCT-116, 10 days with compound, MTS reading, read-out: IC50 HCT116 MTAP-/-.
Source text: The colon cancer cell strain HCT-116 (purchased from Nanjing Cobioer) was co-transfected with the gene editing tool CRISPR/Cas9 and sgRNA, and the MTAP^-/- HCT-116 cell strain with biallelic inactivation of MTAP was obtained by assays such as Western Blotting and Sanger sequencing. The MTAP^-/- HCT-116 cell strain was used for compound selectivity screening and evaluation based on the synergistic mechanism of MTAP deletion and PRMT5, including a symmetric dimethylarginine (SDMA) level test, a cell proliferation test, and the like.
as §1, with “On” for “MTAP^-/- HCT-116 and wild-type HCT-116 cell strains were cultured in complete medium McCoy's 5A (Gibco, 16600082)/10% FBS (Gibco, 10099141C)/1% p/s (Gibco, 15140122) to evaluate the enhanced inhibitory effect of the compounds against the proliferation selectivity of MTAP^-/- HCT-116 cells. On”, “concentration.” for “concentration. Table 1. IC50 (µM)”

The structures appear in SMILES notation.

On to `CN(C(=O)c1cc2c(cc1Cl)nc(N)c1cnn(C)c12)C1COc2cc(C#Cc3cnn(C)c3)ccc21` (stereo not drawn) [Compound 9, 4-amino-7-chloro-N,1-dimethyl-N-(6-((1-methyl-1H-pyrazol-4-yl)ethynyl)-2,3-dihydrobenzofuran-3-yl)-1H-pyrazolo[4,3-c]quinoline-8-carboxamide], for which the IC50 with wild-type HCT-116 cells turned out to be 97.7 nM. In the experiment on MTAP^-/- HCT-116 cells, the Selectivity was determined as 109 and the IC50 amounted to 0.9 nM.

With `Cc1cc2nc(N)c3cnn(C)c3c2cc1C(=O)N(C)C1COc2cc(C#Cc3cnn(C)c3)ccc21` (stereo not drawn) [Compound 10, 4-amino-N,1,7-trimethyl-N-(6-((1-methyl-1H-pyrazol-4-yl)ethynyl)-2,3-dihydrobenzofuran-3-yl)-1H-pyrazolo[4,3-c]quinoline-8-carboxamide], the IC50 in the experiment on wild-type HCT-116 cells turned out to be 162 nM; in the experiment with MTAP^-/- HCT-116 cells, 2 nM. The Selectivity with MTAP^-/- HCT-116 cells amounted to 81.

With `Cc1cc2nc(N)c3cnn(C)c3c2cc1C(=O)N(C)[C@@H]1COc2cc(C#Cc3cnn(C)c3)ccc21` [Compound 10A, (S)-4-amino-N,1,7-trimethyl-N-(6-((1-methyl-1H-pyrazol-4-yl)ethynyl)-2,3-dihydrobenzofuran-3-yl)-1H-pyrazolo[4,3-c]quinoline-8-carboxamide], in the experiment with wild-type HCT-116 cells, the IC50 is 28 nM. In addition, in the experiment with MTAP^-/- HCT-116 cells, the Selectivity is on record as 56 and the IC50 worked out at 0.5 nM.

Take `Cc1cc2nc(N)c3cnn(C)c3c2cc1C(=O)N(C)C1COc2cc(C#Cc3cnn(C4CC4)c3)ccc21` (stereo not drawn) [Compound 11, 4-amino-N-(6-((1-cyclopropyl-1H-pyrazol-4-yl)ethynyl)-2,3-dihydrobenzofuran-3-yl)-N,1,7-trimethyl-1H-pyrazolo[4,3-c]quinoline-8-carboxamide]: the IC50 in the experiment on wild-type HCT-116 cells stood at 185 nM. In the experiment with MTAP^-/- HCT-116 cells, the Selectivity turned out to be 62 and the IC50 stood at 3 nM.

On to `CN(C(=O)c1cc2c(cc1F)nc(N)c1cnn(C)c12)C1COc2cc(C#Cc3cnn(C4CC4)c3)ccc21` (stereo not drawn) [Compound 12, 4-amino-N-(6-((1-cyclopropyl-1H-pyrazol-4-yl)ethynyl)-2,3-dihydrobenzofuran-3-yl)-7-fluoro-N,1-dimethyl-1H-pyrazolo[4,3-c]quinoline-8-carboxamide], for which, in the experiment on wild-type HCT-116 cells, the IC50 was determined as 650 nM. For the same compound, in the experiment on MTAP^-/- HCT-116 cells, the Selectivity is on record as 81 and the IC50 turned out to be 8 nM.

Regarding `CC(C)n1cc(C#Cc2ccc3c(c2)OCC3N(C)C(=O)c2cc3c(cc2F)nc(N)c2cnn(C)c23)cn1` (stereo not drawn) [Compound 13, 4-amino-7-fluoro-N-(6-((1-isopropyl-1H-pyrazol-4-yl)ethynyl)-2,3-dihydrobenzof uran-3-yl)-N,1-dimethyl-1H-pyrazolo[4,3-c]quinoline-8-carboxamide], the IC50 with wild-type HCT-116 cells was 607 nM; with MTAP^-/- HCT-116 cells it was 11 nM. Also, the Selectivity in the experiment on MTAP^-/- HCT-116 cells came out at 55.

For `CCn1cc(C#Cc2ccc3c(c2)OCC3N(C)C(=O)c2cc3c(cc2F)nc(N)c2cnn(C)c23)cn1` (stereo not drawn) [Compound 17, 4-amino-N-(6-((1-ethyl-1H-pyrazol-4-yl)ethynyl)-2,3-dihydrobenzofuran-3-yl)-7-f luoro-N,1-dimethyl-1H-pyrazolo[4,3-c]quinoline-8-carboxamide], the IC50 in the experiment with wild-type HCT-116 cells was determined as 405 nM. In the experiment with MTAP^-/- HCT-116 cells, the Selectivity worked out at 58 and the IC50 was 7 nM.

For `CN(C(=O)c1cc2c(cc1Cl)nc(N)c1cnn(C)c12)C1COc2cc(C#Cc3ccn(C)n3)ccc21` (stereo not drawn) [Compound 18, 4-amino-7-chloro-N,1-dimethyl-N-(6-((1-methyl-1H-pyrazol-3-yl)ethynyl)-2,3-dihydrobenzofuran-3-yl)-1H-pyrazolo[4,3-c]quinoline-8-carboxamide], the IC50 with wild-type HCT-116 cells stood at 159 nM. Also, in the experiment with MTAP^-/- HCT-116 cells, the Selectivity was 53 and the IC50 is 3 nM.

Turning to `CC(C)n1cc(C#Cc2ccc3c(c2)OCC3N(C)C(=O)c2ccc3nc(N)c4cnn(C)c4c3c2)cn1` (stereo not drawn) [Compound 19, 4-amino-N-(6-((1-isopropyl-1H-pyrazol-4-yl)ethynyl)-2,3-dihydrobenzofuran-3-yl)-N,1-dimethyl-1H-pyrazolo[4,3-c]quinoline-8-carboxamide], the IC50 in the experiment with wild-type HCT-116 cells amounted to 986 nM. For the same compound, in the experiment with MTAP^-/- HCT-116 cells, the Selectivity is 102 and the IC50 came out at 9.7 nM.

With `CC(C)n1cc(C#Cc2ccc3c(c2)OC[C@H]3N(C)C(=O)c2ccc3nc(N)c4cnn(C)c4c3c2)cn1` [Compound 19A, (S)-4-amino-N-(6-((1-isopropyl-1H-pyrazol-4-yl)ethynyl)-2,3-dihydrobenzofuran-3-yl)-N,1-dimethyl-1H-pyrazolo[4,3-c]quinoline-8-carboxamide], the IC50 was 1300 nM with wild-type HCT-116 cells and 8.7 nM in the experiment on MTAP^-/- HCT-116 cells. For the same compound, the Selectivity with MTAP^-/- HCT-116 cells came to 149.

In the case of `CCn1cc(C#Cc2ccc3c(c2)OCC3N(C)C(=O)c2ccc3nc(N)c4cnn(C)c4c3c2)cn1` (stereo not drawn) [Compound 20, 4-amino-N-(6-((1-ethyl-1H-pyrazol-4-yl)ethynyl)-2,3-dihydrobenzofuran-3-yl)-N, 1-dimethyl-1H-pyrazolo[4,3-c]quinoline-8-carboxamide], the IC50 in the experiment on wild-type HCT-116 cells came out at 948 nM. For the same compound, in the experiment on MTAP^-/- HCT-116 cells, the Selectivity came out at 97 and the IC50 was 9.8 nM.

On to `CCn1cc(C#Cc2ccc3c(c2)OC[C@H]3N(C)C(=O)c2ccc3nc(N)c4cnn(C)c4c3c2)cn1` [Compound 20A, (S)-4-amino-N-(6-((1-ethyl-1H-pyrazol-4-yl)ethynyl)-2,3-dihydrobenzofuran-3-yl)-N,1-dimethyl-1H-pyrazolo[4,3-c]quinoline-8-carboxamide], for which the figures for the IC50 with wild-type HCT-116 cells and in the experiment with MTAP^-/- HCT-116 cells were 1040 nM and 6.1 nM, respectively. Moreover, in the experiment with MTAP^-/- HCT-116 cells, the Selectivity is 170.

With `CN(C(=O)c1cc2c(cc1F)nc(N)c1cnn(C)c12)C1COc2cc(C#Cc3ccn(C)n3)ccc21` (stereo not drawn) [Compound 21, 4-amino-7-fluoro-N,1-dimethyl-N-(6-((1-methyl-1H-pyrazol-3-yl)ethynyl)-2,3-dihydrobenzofuran-3-yl)-1H-pyrazolo[4,3-c]quinoline-8-carboxamide], the IC50 in the experiment on wild-type HCT-116 cells was 365 nM; in the experiment with MTAP^-/- HCT-116 cells it was 7 nM. Further, the Selectivity in the experiment with MTAP^-/- HCT-116 cells was found to be 52.

On to `CN(C(=O)c1cc2c(cc1F)nc(N)c1cnn(C)c12)[C@@H]1COc2cc(C#Cc3ccn(C)n3)ccc21` [Compound 21A, (S)-4-amino-7-fluoro-N,1-dimethyl-N-(6-((1-methyl-1H-pyrazol-3-yl)ethynyl)-2,3-dihydrobenzofuran-3-yl)-1H-pyrazolo[4,3-c]quinoline-8-carboxamide], for which the IC50 in the experiment with wild-type HCT-116 cells worked out at 233 nM. Besides, in the experiment with MTAP^-/- HCT-116 cells, the Selectivity came out at 86.3 and the IC50 came out at 2.7 nM.

As for `Cc1c(C#Cc2ccc3c(c2)OCC3N(C)C(=O)c2cc3c(cc2Cl)nc(N)c2cnn(C)c23)cnn1C` (stereo not drawn) [Compound 22, 4-amino-7-chloro-N-(6-((1,5-dimethyl-1H-pyrazol-4-yl)ethynyl)-2,3-dihydrobenzofuran-3-yl)-N,1-dimethyl-1H-pyrazolo[4,3-c]quinoline-8-carboxamide], the IC50 with wild-type HCT-116 cells turned out to be 95 nM. Also, in the experiment with MTAP^-/- HCT-116 cells, the Selectivity came to 50 and the IC50 came to 1.9 nM.

As for `Cc1c(C#Cc2ccc3c(c2)OC[C@H]3N(C)C(=O)c2cc3c(cc2Cl)nc(N)c2cnn(C)c23)cnn1C` [Compound 22A, (S)-4-amino-7-chloro-N-(6-((1,5-dimethyl-1H-pyrazol-4-yl)ethynyl)-2,3-dihydrobenzofuran-3-yl)-N,1-dimethyl-1H-pyrazolo[4,3-c]quinoline-8-carboxamide], in the experiment with wild-type HCT-116 cells, the IC50 stood at 55 nM. Besides, in the experiment on MTAP^-/- HCT-116 cells, the Selectivity was 55 and the IC50 was 1 nM.

Regarding `Cc1c(C#Cc2ccc3c(c2)OCC3N(C)C(=O)c2cc3c(cc2F)nc(N)c2cnn(C)c23)cnn1C` (stereo not drawn) [Compound 23, 4-amino-N-(6-((1,5-dimethyl-1H-pyrazol-4-yl)ethynyl)-2,3-dihydrobenzofuran-3-yl)-7-fluoro-N,1-dimethyl-1H-pyrazolo[4,3-c]quinoline-8-carboxamide], the IC50 with wild-type HCT-116 cells came out at 307 nM; in the experiment with MTAP^-/- HCT-116 cells it was 4 nM. Besides, the Selectivity in the experiment with MTAP^-/- HCT-116 cells was 77.
